Source: patent US20220380375A1, “SUBSTITUTED AROMATIC FUSED RING DERIVATIVE AND COMPOSITION COMPRISING SAME, AND USE THEREOF” (Shenzhen TargetRx, Inc., priority 2019, published 2022)
Marks after values point to notes of the source that are not given here. Values belong to the molecule of their own block, whether it stands above or below them.

How the values were obtained:
[1] = test system: Ba/F3 KIF5B-RET cell line tumor model; assay: Anti-tumor effect assay in Ba/F3 KIF5B-RET cell line tumor model (allograft); format: in vivo, female NPSG mice; details: for Tumor volume (x ± S), Day 0 of administration: 10 mg/kg p.o. QD × 14, day 0 (baseline); for TGI (%), Day 14 of administration / Tumor volume (x ± S), Day 14 of administration: 10 mg/kg p.o. QD × 14, day 14
From the text: (§1) The efficacy of compounds of the present disclosure in female NPSG mouse allograft models of two B-cell lymphoma cell lines Ba/F3 KIF5B-RET and Ba/F3 KIF5B-RET^G810R was verified.
(§2) Assay animals: Female NPSG mice, 6-8 weeks old (age of mice at the time of tumor cell inoculation), weighing 18-20 g, 60 mice, purchased from Shanghai Jihui Laboratory Animal Care Co., Ltd.
(§3) Assay methods: 1) Ba/F3 KIF5B-RET and Ba/F3 KIF5B-RET^G810R cells were respectively resuscitated and Cultured in vitro, and 3×10^7 cells of each type were obtained. 2) 60 female NPSG mice aged 6-8 weeks were adaptively bred for 1 week and then weighed. 4) After inoculation, tumor volume and body weight were measured once a week. When average tumor volume reached about […], mice inoculated with each type of Ba/F3 cells were randomly divided into 7 groups according to tumor volume and body weight, with 3 mice in each group. The administration was started immediately after grouping. The date of start of administration was regarded as day 0. Informations on administration and grouping were shown in Tables 5 and 6.5) After the start of the administration, the body weight and tumor volume of mice were measured twice a week. 6) After the end of the administration, the assay was over.
(§4) Assay observation and data collection: After tumor inoculation, morbidity and death of animals were observed every working day. Daily observation included tumor growth and effects of drugs on laboratory animals, such as changes in activity, changes in feeding and drinking, weight loss, changes in appearance of hair and eye, death and other clinical symptoms. Formula for calculating tumor volume is: tumor volume (mm^3)=½×(a×b^2) (wherein a represents the long diameter and b represents the short diameter)
(§5) Relative tumor inhibition rate TGI (%): TGI %=(1−T/C)×100%. T/C % is relative tumor proliferation rate, that is, a percentage value of relative tumor volume between treatment group and control group at a certain point in time. T and C are relative tumor volume (RTV, that is, the […] tumor volume at this time point and tumor volume at day 0) of treatment group and control group at a certain point in time, respectively.
(§6) Statistical analysis: For pairwise comparison, a T-Test analysis method was used, and for comparison of three or more groups, a One-Way ANOVA method was used. For comparison of potential synergistic effects, a Two-way ANOVA was used. SPSS 24.0 was used for all data. A p value less than 0.05 was considered a significant difference.

[2] = test system: Ba/F3 KIF5B-RET^G810R cell line tumor model; assay: Anti-tumor effect assay in Ba/F3 KIF5B-RET^G810R cell line tumor model (allograft); format: in vivo, female NPSG mice; details: for Tumor volume (x ± S), Day 0 of administration / Tumor volume (x ± S), Day 13 of administration / TGI (%), Day 13 of administration: Ba/F3 KIF5B-RET^G810R model; for Tumor volume (x ± S), Day 0 of administration: 25 mg/kg p.o. QD × 13, day 0 (baseline); for Tumor volume (x ± S), Day 13 of administration / TGI (%), Day 13 of administration: 25 mg/kg p.o. QD × 13, day 13; for TGI (%), Day 13 of administration: TGI more than 100% = decrease in tumor volume; for relative tumor inhibition rate TGI (%): day 13 of administration, AD80 group 25 mg/kg
From the text: as §1, §2, §3, §4, §5, §6

[3] = Safety assay (body weight, tolerability) in Ba/F3 KIF5B-RET cell line tumor model; format: in vivo; details: for Number of animals at the beginning/end of assay: 10 mg/kg p.o. QD × 14; for Average weight g (x ± S), Day 0 of administration: 10 mg/kg p.o. QD × 14, day 0 (baseline); for Average weight g (x ± S), Day 14 of administration / Weight change rate (%), Day 14 of administration: 10 mg/kg p.o. QD × 14, day 14; for tolerability (weight loss, drug withdrawal, drug toxicity): during the treatment
Experimental: as §3, §4

[4] = Safety assay (body weight, tolerability) in Ba/F3 KIF5B-RET^G810R cell line tumor model; format: in vivo; details: for Number of animals at the beginning/end of assay: 25 mg/kg p.o. QD × 13; for Average weight g (x ± S), Day 0 of administration: 25 mg/kg p.o. QD × 13, day 0 (baseline); for Average weight g (x ± S), Day 13 of administration / Weight change rate (%), Day 13 of administration: 25 mg/kg p.o. QD × 13, day 13; for tolerability (weight loss, drug withdrawal, drug toxicity): during the treatment
Experimental: as §3, §4

Ret wt = target: T1, Ret wt (Homo sapiens, UniProt P07949); assay: Inhibition of kinase, Ret wt (HTRF KinEASE-TK); format: biochemical
T1 construct: purchased Carna 08-159-10 ug
Experimental: (§7) Ret wt (Carna, Cat. No. 08-159-10 ug), RET (V804M), Active (Signalchem. Cat. No. R02—12GG), HTRF KinEASE-TK kit (Cisbio, Cat. No.62TK0PEC), CEP-32496 (MCE, Cat. No. HY-15200), ATP (Sigma. Cat. No. A7699), DMSO (Sigma, Cat. No. D8418-1L), DTT (Sigma, Cat. No. D0632), MgCl2(Sigma, Cat. No. M1028), 384-well plate (Labcyte, Cat. No. P-05525-BC).
(§8) Formulation of compound: The test compounds were dissolved in DMSO to obtain 10 mM stock solutions, which were then serially diluted 3-fold in DMSO to obtain 10 concentrations. At the time of addition, the compound was further diluted 10-fold with buffer.
(§9) In 5×kinase buffer A, Ret wt or RET V804M kinase was mixed with different concentrations of compounds prepared by pre-dilution for 10 minutes. Each concentration was tested in duplicate. The corresponding substrate and ATP were added, and reaction was performed at room temperature for 20 minutes (negative and positive controls were provided: the negative control was a blank control, and the positive control was CEP-32496 (Agerafenib)). After completion of the reaction, detection reagents (reagents in the HTRF KinEASE-TK kit) were added. After incubating for 30 minutes at room temperature, enzyme activity in the presence of various concentrations of the compounds of the present disclosure was determined by Envision microplate reader, and inhibitory activity of different concentrations of the compounds on enzyme activity was calculated. The inhibitory activity of different concentrations of the compounds on enzyme activity was fitted by Graphpad 5.0 software, and the IC50 value was calculated.

RET V804M = target: T2, RET V804M (Homo sapiens, UniProt P07949, V804M); assay: Inhibition of kinase, RET V804M (HTRF KinEASE-TK); format: biochemical
T2 construct: purchased Signalchem R02—12GG
Experimental: as §7, §8, §9

T1 sequence (P07949 29-1114): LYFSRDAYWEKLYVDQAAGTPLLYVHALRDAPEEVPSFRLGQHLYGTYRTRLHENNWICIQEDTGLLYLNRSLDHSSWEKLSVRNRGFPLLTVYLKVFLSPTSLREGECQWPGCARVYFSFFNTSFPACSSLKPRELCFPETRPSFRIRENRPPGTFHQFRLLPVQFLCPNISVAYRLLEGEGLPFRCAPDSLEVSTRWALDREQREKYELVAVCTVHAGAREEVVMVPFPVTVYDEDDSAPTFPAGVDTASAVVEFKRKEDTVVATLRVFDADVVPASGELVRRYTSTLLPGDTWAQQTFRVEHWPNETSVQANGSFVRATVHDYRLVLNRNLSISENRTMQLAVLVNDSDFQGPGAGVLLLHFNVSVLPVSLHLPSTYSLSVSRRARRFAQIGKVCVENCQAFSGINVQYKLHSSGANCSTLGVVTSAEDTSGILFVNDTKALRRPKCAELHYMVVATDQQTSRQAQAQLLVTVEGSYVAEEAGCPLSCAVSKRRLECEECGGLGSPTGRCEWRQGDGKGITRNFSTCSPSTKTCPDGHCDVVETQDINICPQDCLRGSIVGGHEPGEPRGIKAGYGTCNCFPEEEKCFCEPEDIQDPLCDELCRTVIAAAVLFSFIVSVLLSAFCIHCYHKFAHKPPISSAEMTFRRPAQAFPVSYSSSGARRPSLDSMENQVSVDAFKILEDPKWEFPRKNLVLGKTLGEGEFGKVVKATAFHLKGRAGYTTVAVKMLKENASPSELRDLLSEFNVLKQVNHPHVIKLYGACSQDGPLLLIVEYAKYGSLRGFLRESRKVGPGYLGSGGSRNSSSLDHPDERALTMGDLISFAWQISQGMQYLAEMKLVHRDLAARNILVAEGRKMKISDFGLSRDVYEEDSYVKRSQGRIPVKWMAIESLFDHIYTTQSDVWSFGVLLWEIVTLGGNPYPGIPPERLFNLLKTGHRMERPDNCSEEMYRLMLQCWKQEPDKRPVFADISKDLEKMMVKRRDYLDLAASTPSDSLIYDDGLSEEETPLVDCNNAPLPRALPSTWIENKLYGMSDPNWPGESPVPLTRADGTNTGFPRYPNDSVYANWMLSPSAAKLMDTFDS
T2 sequence (P07949 29-1114 V804M): as the sequence (P07949 29-1114) above, with V776M counted along it

SMILES: CC(C)n1nc(-c2ccc(NC(=O)Nc3cc(C(F)(F)F)ccc3F)cc2)c2c(N)ncnc21 [AD80, reference compound]
Tumor volume (x ± S), Day 0 of administration [1]: 100.3 ± 4.33 mm^3
TGI (%), Day 14 of administration [1]: 46.4%
Tumor volume (x ± S), Day 14 of administration [1]: 821.7 ± 54.5 mm^3
Tumor volume (x ± S), Day 0 of administration [2]: 94.7 ± 5.24 mm^3
Tumor volume (x ± S), Day 13 of administration [2]: 185.7 ± 33.65 mm^3
TGI (%), Day 13 of administration [2]: 75.2%
relative tumor inhibition rate TGI (%) [2]: 75.2%
Number of animals at the beginning/end of assay [3]: 3/3
Average weight g (x ± S), Day 0 of administration [3]: 20.1 ± 0.81 g
Average weight g (x ± S), Day 14 of administration [3]: 22.6 ± 0.87 g
Weight change rate (%), Day 14 of administration [3]: 12.7%
tolerability (weight loss, drug withdrawal, drug toxicity) [3]: well tolerated
Number of animals at the beginning/end of assay [4]: 3/3
Average weight g (x ± S), Day 0 of administration [4]: 19.9 ± 0.44 g
Average weight g (x ± S), Day 13 of administration [4]: 20.7 ± 1.53 g
Weight change rate (%), Day 13 of administration [4]: 4.14%
tolerability (weight loss, drug withdrawal, drug toxicity) [4]: well tolerated

SMILES: CC(C)c1nc(-c2ccc(CC(=O)Nc3cc(C(C)(C)C(F)(F)F)on3)cc2)c2c(N)nccn12 [Compound T-4, 2-(4-(8-amino-3-isopropylimidazo[1,5-a]pyrazin-1-yl)phenyl)-N-(5-(1,1,1-trifluoro-2-methylprop-2-yl)isoxazol-3-yl)acetamide]
IC50 (Ret wt): ≤ 0.5 nM
IC50 (RET V804M): 1 to 10 nM

SMILES: CC(C)n1nc(-c2ccc(CC(=O)Nc3cc(C(C)(C)C(F)(F)F)on3)cn2)c2c(N)ncnc21 [Compound T-7, 2-(6-(4-amino-1-isopropyl-1H-pyrazolo[3,4-d]pyrimidin-3-yl)pyridin-3-yl)-N-(5-(1,1,1-trifluoro-2-methylprop-2-yl)isoxazol-3-yl)acetamide]
IC50 (Ret wt): 1 to 10 nM
IC50 (RET V804M): 1 to 10 nM

SMILES: CC(C)n1nc(-c2ccc(CC(=O)Nc3cc(C(C)(C)C(F)(F)F)no3)cc2)c2c(N)ncnc21 [Compound T-8, 2-(4-(4-amino-1-isopropyl-1H-pyrazolo[3,4-d]pyrimidin-3-yl)phenyl)-N-(3-(1,1,1-trifluoro-2-methylprop-2-yl)isoxazol-5-yl)acetamide]
Tumor volume (x ± S), Day 0 of administration [1]: 101.3 ± 4.33 mm^3
TGI (%), Day 14 of administration [1]: 95.4%
Tumor volume (x ± S), Day 14 of administration [1]: 163.7 ± 19.74 mm^3
Tumor volume (x ± S), Day 0 of administration [2]: 96.7 ± 6.74 mm^3
Tumor volume (x ± S), Day 13 of administration [2]: 90.7 ± 8.41 mm^3
TGI (%), Day 13 of administration [2]: 101.6%#
relative tumor inhibition rate TGI (%) [2]: 101.6%
Number of animals at the beginning/end of assay [3]: 3/3
Average weight g (x ± S), Day 0 of administration [3]: 20.5 ± 1.07 g
Average weight g (x ± S), Day 14 of administration [3]: 21.7 ± 0.82 g
Weight change rate (%), Day 14 of administration [3]: 6.0%
tolerability (weight loss, drug withdrawal, drug toxicity) [3]: well tolerated
Number of animals at the beginning/end of assay [4]: 3/3
Average weight g (x ± S), Day 0 of administration [4]: 19.6 ± 0.32 g
Average weight g (x ± S), Day 13 of administration [4]: 22.5 ± 0.73 g
Weight change rate (%), Day 13 of administration [4]: 14.40%
tolerability (weight loss, drug withdrawal, drug toxicity) [4]: well tolerated

Next, values leading:

IC50 (Ret wt): 1 to 10 nM
IC50 (RET V804M): 1 to 10 nM
SMILES: [2H]C([2H])([2H])C(n1nc(-c2ccc(CC(=O)Nc3cc(C(C)(C)C(F)(F)F)no3)cc2)c2c(N)ncnc21)C([2H])([2H])[2H] [Compound T-11, 2-(4-(4-amino-1-(propan-2-yl-1,1,1,3,3,3-d6)-1H-pyrazolo[3,4-d]pyrimidin-3-yl)phenyl)-N-(3-(1,1,1-trifluoro-2-methylpropan-2-yl)isoxazol-5-yl)acetamide]

IC50 (Ret wt): 10 to 50 nM
IC50 (RET V804M): 1 to 10 nM
SMILES: [2H]C([2H])([2H])C(n1cc(-c2ccc(CC(=O)Nc3cc(C(C)(C)C(F)(F)F)on3)cc2)c2c(N)ncnc21)C([2H])([2H])[2H] [Compound T-12, 2-(4-(4-amino-7-(propen-2-yl-1,1,1,3,3,d6)-7H-pyrrolo[2,3-d]pyrimidin-5-yl)phenyl)-N-(5-(1,1,1-trifluo-2-methylpropan-2-yl)isoxazol-3-yl)acetamide]
